Laboratory results reported in patent US12410160B2 (Gilead Sciences, Inc., priority 2021, dated 2025).

Assays:
[1] = target: human KHK-C (Homo sapiens (Human), UniProt P50053); assay: KHK Biochemical Assay (IC50), ADP-Glo, KHK-C; details: ADP-Glo; average of at least two separate assays
Outline: (§1)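 His-tagged enzyme expressed in BL21 (DE3), Ni-NTA purified. Compounds, serially diluted 1:3 in DMSO, pre-incubated 30 min with enzyme in 50 mM Hepes pH 7.4, 140 mM KCl, 5 mM MgCl2, 0.01% Triton-X, then ATP and fructose added; 4 h at room temperature. ADP formation read by ADP-Glo luminescence.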

[2] = target: human KHK-A (Homo sapiens (Human), UniProt P50053); assay: KHK Biochemical Assay (IC50), ADP-Glo, KHK-A; details: ADP-Glo; average of at least two separate assays
Outline: as §1

[3] = target: KHK-C expressed in NRK-52E cells (Homo sapiens (Human), UniProt P50053); assay: KHK-C Cell-based Assay (EC50), NRK CTG, fructose-mediated ATP-depletion
Chain of KHK-C expressed in NRK-52E cells (P50053 whole entry): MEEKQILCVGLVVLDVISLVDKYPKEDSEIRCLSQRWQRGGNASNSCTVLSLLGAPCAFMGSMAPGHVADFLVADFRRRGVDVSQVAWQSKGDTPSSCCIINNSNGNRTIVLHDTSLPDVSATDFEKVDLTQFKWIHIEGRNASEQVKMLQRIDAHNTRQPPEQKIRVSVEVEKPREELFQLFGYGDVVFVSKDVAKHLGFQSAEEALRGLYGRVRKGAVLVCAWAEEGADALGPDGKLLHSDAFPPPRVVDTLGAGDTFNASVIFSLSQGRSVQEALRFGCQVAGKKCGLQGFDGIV

Chain of human KHK-A (P50053 other isoform, or with tags, fused parts or gaps): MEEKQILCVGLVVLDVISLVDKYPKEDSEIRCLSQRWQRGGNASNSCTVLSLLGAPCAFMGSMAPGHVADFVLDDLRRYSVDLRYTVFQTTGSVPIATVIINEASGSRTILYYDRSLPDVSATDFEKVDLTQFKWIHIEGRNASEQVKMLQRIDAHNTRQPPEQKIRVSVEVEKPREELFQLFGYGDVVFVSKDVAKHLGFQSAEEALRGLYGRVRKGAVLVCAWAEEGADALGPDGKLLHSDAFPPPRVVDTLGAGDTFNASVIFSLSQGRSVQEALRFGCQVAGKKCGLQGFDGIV
Chain of human KHK-C (P50053 whole entry): as the sequence (P50053 whole entry) above

SMILES | IC50 [1] | IC50 [2] | EC50 [3]
C[C@H]1CCN1c1nc2c(c(-c3ccc(C(O)C(F)F)cc3)n1)CCC2 (stereo partly drawn) [Example 256, 2,2-difluoro-1-[4-[2-[(2S)-2-methylazetidin-1-yl]-6,7-dihydro-5H-cyclopenta[d]pyrimidin-4-yl]phenyl]ethanol] | 262 nM | 519 nM | 161 nM
C[C@H]1CCN1c1nc2c(c(-c3ccc(C(O)CF)cc3)n1)CCC2 (stereo partly drawn) [Example 257, 2-fluoro-1-[4-[2-[(2S)-2-methylazetidin-1-yl]-6,7-dihydro-5H-cyclopenta[d]pyrimidin-4-yl]phenyl]ethanol] | 128 nM | 201 nM | 185 nM
C[C@H]1CCN1c1nc2c(c(-c3cccc(OC(F)F)c3)n1)CCC2 [Example 258, 4-[3-(difluoromethoxy)phenyl]-2-[(2S)-2-methylazetidin-1-yl]-6,7-dihydro-5H-cyclopenta[d]pyrimidine] | 2850 nM | 2000 nM | 525 nM
C[C@H]1CCN1c1nc2c(c(-c3cnc4c(c3)NCCO4)n1)CCC2 [Example 263, 7-[2-[(2S)-2-methylazetidin-1-yl]-6,7-dihydro-5H-cyclopenta[d]pyrimidin-4-yl]-2,3-dihydro-1H-pyrido[2,3-b][1,4]oxazine] | 50 nM | 96.2 nM | 155 nM
C[C@]1(O)CCN(c2nc3c(c(-c4ccc(C(N)=O)cc4)n2)CCC3)C1 [Example 268, 4-[2-[(38)-3-hydroxy-3-methyl-pyrrolidin-1-yl]-6,7-dihydro-5H-cyclopenta[d]pyrimidin-4-yl]benzamide] | > 5000 nM | > 5000 nM | > 5000 nM
C[C@H]1CCN1c1nc(-c2cccc(C(N)=O)c2)c2c(cnn2C)n1 [Example 271, (S)-3-(1-methyl-5-(2-methylazetidin-1-yl)-1H-pyrazolo[4,3-d]pyrimidin-7-yl)benzamide] | 532 nM | 518 nM | 2320 nM
C[C@H]1CCN1c1nc2c(c(-c3ccc4c(c3)CCO4)n1)CCC2 [Example 274, (S)-4-(2,3-dihydrobenzofuran-5-yl)-2-(2-methylazetidin-1-yl)-6,7-dihydro-5H-cyclopenta[d]pyrimidine] | 142 nM | 204 nM | 205 nM
C[C@H]1CCN1c1nc2c(c(-c3ccc4c(ccn4C)c3)n1)CCC2 [Example 275, (S)-4-(1-methyl-1H-indol-5-yl)-2-(2-methylazetidin-1-yl)-6,7-dihydro-5H-cyclopenta[d]pyrimidine] | 618 nM | 1040 nM | 291 nM
CC(O)c1cccc(-c2nc(N3CC[C@@H]3C)nc3c2CCC3)c1 (stereo partly drawn) [Example 276, 1-(3-(2-((S)-2-methylazetidin-1-yl)-6,7-dihydro-5H-cyclopenta[d]pyrimidin-4-yl)phenyl)ethan-1-ol] | 69.5 nM | 66.6 nM | 110 nM
C[C@H]1CCN1c1nc2c(c(-c3cccc(CNS(C)(=O)=O)c3)n1)CCC2 [Example 277, (S)—N-(3-(2-(2-methylazetidin-1-yl)-6,7-dihydro-5H-cyclopenta[d]pyrimidin-4-yl)benzyl)methanesulfonamide] | 15.3 nM | 11.9 nM | 26.7 nM
C[C@H]1[C@H](F)CN1c1nc2c(c(-c3cccc(CNS(C)(=O)=O)c3)n1)CCC2 [Example 284] | 16.4 nM | 21.8 nM | 55.7 nM
C[C@H]1[C@H](O)CN1c1nc2c(c(-c3ccc4c(c3)CCNC4=O)n1)CCC2 [Example 288] | 44.3 nM | 103 nM | 108 nM
C[C@H]1[C@H](F)CN1c1nc2c(c(-c3ccc4c(c3)CCNC4=O)n1)CCC2 [Example 289] | 17.5 nM | 57.9 nM | 34.5 nM
C[C@H]1[C@H](F)CN1c1nc2c(c(-c3cccc(NS(C)(=O)=O)c3)n1)CCC2 [Example 290, N-(3-(2-((2S,3R)-3-fluoro-2-methylazetidin-1-yl)-6,7-dihydro-5H-cyclopenta[d]pyrimidin-4-yl)phenyl)methanesulfonamide] | 30.9 nM | 50.5 nM | 71.3 nM
C[C@H]1CCN1c1nc2c(c(-c3ccc(C(N)=O)c(Cl)c3)n1)CCC2 [Example 303, (S)-2-chloro-4-(2-(2-methylazetidin-1-yl)-6,7-dihydro-5H-cyclopenta[d]pyrimidin-4-yl)benzamide] | 49.7 nM | 29.7 nM | 91.5 nM
C[C@H]1[C@H](O)CN1c1nc2c(c(-c3ccc(C(N)=O)c(F)c3)n1)CCC2 [Example 307] | 69.9 nM | 86.5 nM | 166 nM
C[C@H]1[C@H](O)CN1c1nc2c(c(-c3ccc(C(N)=O)c(Cl)c3)n1)CCC2 [Example 308] | 97.5 nM | 130 nM | 294 nM
COc1cc(-c2nc(N3CC[C@@H]3C)nc3c2CCC3)ccc1C(N)=O [Example 309, (S)-2-methoxy-4-(2-(2-methylazetidin-1-yl)-6,7-dihydro-5H-cyclopenta[d]pyrimidin-4-yl)benzamide] | 17.4 nM | 19 nM | 15.8 nM
COc1cc(-c2nc(N3CC[C@@H]3C)nc3c2CCC3)ccc1C#N [Example 310, (S)-2-methoxy-4-(2-(2-methylazetidin-1-yl)-6,7-dihydro-5H-cyclopenta[d]pyrimidin-4-yl)benzonitrile] | 555 nM | 449 nM | 1810 nM
C[C@H]1CCN1c1nc2c(c(-c3ccc(C#N)c(Cl)c3)n1)CCC2 [Example 314, (S)-2-chloro-4-(2-(2-methylazetidin-1-yl)-6,7-dihydro-5H-cyclopenta[d]pyrimidin-4-yl)benzonitrile] | 1940 nM | 2020 nM | 4490 nM

Other lines, results leading:

IC50 [1] | IC50 [2] | EC50 [3] | SMILES
> 5000 nM | > 5000 nM | 915 nM | C[C@H]1CCN1c1nc2c(c(-c3ccc(C4(NC(=O)OC(C)(C)C)CCC4)cc3)n1)CCC2 [Example 311, (S)-tert-butyl (1-(4-(2-(2-methylazetidin-1-yl)-6,7-dihydro-5H-cyclopenta[d]pyrimidin-4-yl)phenyl)cyclobutyl)carbamate]
1150 nM | 1030 nM | 2080 nM | C[C@H]1CCN1c1nc2c(c(-c3ccc(C#N)c(F)c3)n1)CCC2 [Example 313, (S)-2-fluoro-4-(2-(2-methylazetidin-1-yl)-6,7-dihydro-5H-cyclopenta[d]pyrimidin-4-yl)benzonitrile]
34 nM | 31.5 nM | 57.3 nM | C[C@H]1CCN1c1nc2c(c(-c3cc(F)c(C(N)=O)c(F)c3)n1)CCC2 [Example 315, (S)-2,6-difluoro-4-(2-(2-methylazetidin-1-yl)-6,7-dihydro-5H-cyclopenta[d]pyrimidin-4-yl)benzamide]
42.9 nM | 19 nM | 35 nM | C[C@H]1CCN1c1nc2c(c(-c3ccc(C(N)=O)c(C(F)(F)F)c3)n1)CCC2 [Example 316, (S)-4-(2-(2-methylazetidin-1-yl)-6,7-dihydro-5H-cyclopenta[d]pyrimidin-4-yl)-2-(trifluoromethyl)benzamide]
20.9 nM | 25 nM | 37.3 nM | CCOc1cc(-c2nc(N3CC[C@@H]3C)nc3c2CCC3)ccc1C(N)=O [Example 319, (S)-2-ethoxy-4-(2-(2-methylazetidin-1-yl)-6,7-dihydro-5H-cyclopenta[d]pyrimidin-4-yl)benzamide]
244 nM | 210 nM | 638 nM | C[C@H]1CCN1c1nc2c(c(-c3ccc(C(N)=O)c(NS(C)(=O)=O)c3)n1)CCC2 [Example 320, (S)-4-(2-(2-methylazetidin-1-yl)-6,7-dihydro-5H-cyclopenta[d]pyrimidin-4-yl)-2-(methylsulfonamido)benzamide]
4.4 nM | 4.8 nM | 7.3 nM | C[C@H]1CCN1c1nc(-c2cccc(S(N)(=O)=O)c2)c2c(n1)C(F)(F)CC2 [Example 321, (S)-3-(7,7-difluoro-2-(2-methylazetidin-1-yl)-6,7-dihydro-5H-cyclopenta[d]pyrimidin-4-yl)benzenesulfonamide]
4.2 nM | 4.7 nM | 16.1 nM | C[C@H]1CCN1c1nc(-c2cccc(CNS(C)(=O)=O)c2)c2c(n1)C(F)(F)CC2 [Example 323, (S)—N-(3-(7,7-difluoro-2-(2-methylazetidin-1-yl)-6,7-dihydro-5H-cyclopenta[d]pyrimidin-4-yl)benzyl)methanesulfonamide]
19.2 nM | 22.4 nM | 13.1 nM | CNCc1cccc(-c2nc(N3CC[C@@H]3C)nc3c2CCC3)c1 [Example 330, N-methyl-1-[3-[2-[(2S)-2-methylazetidin-1-yl]-6,7-dihydro-5H-cyclopenta[d]pyrimidin-4-yl]phenyl]methanamine]
1310 nM | 1310 nM | 1130 nM | C[C@H]1CCN1c1nc(-c2ccccc2)c2c(n1)[C@@H]1C[C@@H]1C2 [Example 333, (5aR,6aR)-2-((S)-2-methylazetidin-1-yl)-4-phenyl-5,5a,6,6a-tetrahydrocyclopropa[4,5]cyclopenta[1,2-d]pyrimidine]
45.1 nM | 12.6 nM | 53.7 nM | C[C@H]1CCN1c1nc2c(c(-c3cccc(CN4CCCCC4)c3)n1)CCC2 [Example 345, 2-[(2S)-2-methylazetidin-1-yl]-4-[3-(1-piperidylmethyl)phenyl]-6,7-dihydro-5H-cyclopenta[d]pyrimidine]
14.7 nM | 16.7 nM | 27.5 nM | C[C@H]1CCN1c1nc2c(c(-c3cccc(CN(C)C)c3)n1)CCC2 [Example 346, N,N-dimethyl-1-[3-[2-[(2S)-2-methylazetidin-1-yl]-6,7-dihydro-5H-cyclopenta[d]pyrimidin-4-yl]phenyl]methanamine]
